# In patent US9061054B2, “ErbB-2 receptor targeting peptide” (The Curators of The University of Missouri, priority 2002, dated 2015):
# Numbered stars: 1 amine (or outer) side, 2 acyl side, 3 side chain; on linkers, the order of the positions; unused ones are H or OH. Bridge positions count the residues as written; N and C are the ends. Square brackets hold non-standard residues; d marks the D form. Ends that are not written are not given here. Peptide text beside a SMILES is read from it. I, II: the chains in the order shown. Actinocin(9to1) = Cc1c2oc3c(C)ccc(C(=O)[*:1])c3nc-2c(C(=O)[*:2])c(N)c1=O; NMeV = CN[C@H](C(=O)O)C(C)C; Sar = CNCC(=O)O
# How the values were obtained:
# [1] = cited from earlier work; for plasma protein binding: in vivo
# [2] = oral radioactive lomustine, about 30 mg/m^2 to 100 mg/m^2; cited from earlier work
# ErbB-2-ECD [3] = molecular target: T1, ErbB-2-ECD (Homo sapiens, UniProt P04626); assay: Affinity selection of phage display library; format: binding; set-up: Purification and characterization of the recombinant extracellular domain of ErbB-2; made in house; details: 100 clones sequenced after four rounds of affinity selection; F3-6 library
# Description: Affinity Selection. […] Biotinylated antigen was incubated with streptavidin coated plates for 2 hours at 4° C. In first and second round of selection 10 μg of biotinylated antigen per plate was added, in third round amount of antigen was decreased to 1 μg, and for fourth round of selection 0.1 μg of antigen was used. Unoccupied biotin-binding sites were blocked with 0.1 mM biotin. Phage was incubated with antigen for 4 hrs at RT. Plates were washed 10 times with TPBS to remove unbound phage. Bound phage was eluted with elution buffer (0.1 M HCl, pH is adjusted to 2.2 with glycine, 1 mg/ml BSA, 0.1 mg/ml phenol red) at RT during 10 min. […] After each round, except the last, the eluate of the bound phage was propagated and used as input for the next round. Individual clones were characterized by DNA sequencing after the fourth round of selection.
# A random 6-amino acid peptide bacteriophage display library was affinity selected against the ErbB-2-ECD to identify novel peptide-ligands.
# [4] = in vivo; cited from earlier work
# multiple myeloma = details: oral administration; cited from earlier work
# [5] = tested on: T-24 human bladder carcinoma cells; assay: Direct cell binding assay, T-24 (negative control); format: cell-based; details: biotinylated peptide 100 μM, antibody 1:100
# Description: (§1) Cell Binding Assay. DU-145 (human prostate adenocarcinoma), MDA-MB-435 (human breast carcinoma), and T-24 (human bladder carcinoma) cells were grown directly on the same microscope slide using a 4 well Lab-Tek II chamber slide system (Nalge Nunc). When cultures reached approximately 60-70% confluence, the cells were briefly washed with PBS, fixed with 4% formaldehyde solution in PBS for 30 min but not permeabilized, and preblocked for 1 hr with 2% bovine serum albumin (BSA) solution in PBS at 37° C. The cultivation chambers were removed and cells were incubated for 2 hr with solution of Neu (9G6) anti-ErbB-2 mouse monoclonal antibody (Santa Cruz Biotechnology) diluted 1:100 and biotinylated peptide (100 μM) in 2% solution BSA in PBS. The slides were washed three times with PBS followed by 1 hr incubation with Lissamine Rhodamineconjugated donkey anti-mouse IgG (Jackson ImmunoResearch Laboratories) and streptavidin-AMCA-S conjugate (Molecular Probes) in 2% BSA in PBS. After additional washes with PBS, the slides were mounted and analyzed by fluorescent microscopy using Rhodamine and UVA filter sets.
# Direct Cell Binding Assay. The ability of the p6.1 to recognize cultured human cancer cells expressing native conformation of the ErbB-2 was examined. High levels of ErbB-2 expression on DU-145 human prostate carcinoma cells has been reported previously (Zhau et al., 1992). […]
# [6] = tested on: DU-145 human prostate carcinoma cells; assay: Direct cell binding assay, DU-145; format: cell-based; details: fixed, non-permeabilized cells; biotinylated peptide 100 μM; antibody 1:100
# Description: as §1, with “DU-145 (human prostate adenocarcinoma), MDA-MB-435 (human breast carcinoma), and T-24 (human bladder carcinoma) cells were grown directly on the same microscope slide using a 4 well Lab-Tek II chamber slide system (Nalge Nunc).” left out
# (§2) Direct Cell Binding Assay. The ability of the p6.1 to recognize cultured human cancer cells expressing native conformation of the ErbB-2 was examined.
# [7] = tested on: MDA-MB-435 human breast carcinoma cells; assay: Direct cell binding assay, MDA-MB-435; format: cell-based; details: fixed, non-permeabilized cells; biotinylated peptide 100 μM; antibody 1:100
# Description: as §1, with “DU-145 (human prostate adenocarcinoma), MDA-MB-435 (human breast carcinoma), and T-24 (human bladder carcinoma) cells were grown directly on the same microscope slide using a 4 well Lab-Tek II chamber slide system (Nalge Nunc).” left out
# as §2
# ErbB-2-ECD [8] = molecular target: T1, ErbB-2-ECD; assay: ELISA, immobilized ErbB-2-ECD
# Description: ELISA. […] Wells were subsequently incubated with biotinylated peptide added to the wells by serial dilutions (1:2) at RT for 2 hr. […] The pNPP reaction was stopped with 3M NaOH. Optical density was measured at 405 nm in a microplate reader. All assays were performed at least three times in triplicate wells. Values are reported as an average of absorbence ±SD.
# [9] = tested on: BSA, bovine asialofetuin, and human IgG; assay: Immunoblot analysis, control proteins; format: binding; details: 6.25-50 ng on nitrocellulose, biotinylated peptide
# Description: Binding activity of p6.1 peptide.
# soluble ErbB-2-ECD = molecular target: T2, soluble ErbB-2-ECD (Homo sapiens, UniProt P04626); assay: Fluorescence quenching titration of ErbB-2-ECD; format: binding; details: saturation conditions; excited at 300 nm, monitored at 350 nm
# T2 construct: Purification and characterization of the recombinant extracellular domain of ErbB-2; made in house
# Description: Fluorescence assay. The fluorescence titration studies were carved out using a SLM Aminco spectrofluorometer interfaced to a DEL 433/L PC running SLM Aminco 8100 series 2 software. The titrations were performed at 25° C. with varying amounts of peptide added to a fixed ErbB-2-ECD concentration (200-600 nM) in 2 ml of phosphate buffered saline (pH=7.4). Each measurement was collected for 5-20 sec after 1-2 min pre-equilibration. The excitation shutter remained closed during pre-equilibration of the sample and was opened only during data acquisition in order to minimize photobleaching of the sample. The fluorescence measurements were corrected for dilutions and photobleaching of ErbB-2-ECD. Values reported are an average of three independent measurements. […]
# Fluorescence quenching studies were performed in order to evaluate the equilibrium dissociation constant of p6.1 to the soluble Erb-2-ECD. Intrinsic tryptophan fluorescence of the protein was monitored as a function of peptide concentration. Since p6.1 peptide contains a tyrosine residue, samples were excited at 300 nm and monitored at 350 nm to minimize the influence of tyrosine emission on tryptophan fluorescence. […] Theoretical curves were generated for the percentage of fluorescence quenching as a function of total peptide concentration (FIG. 2C).
# [10] = molecular target: T3, ErbB-1 receptor from human carcinoma A431 cells (Homo sapiens, UniProt P00533); assay: ELISA, immobilized ErbB-1; format: binding; details: 100 ng protein per well; biotinylated peptide in 1:2 serial dilutions; OD 405 nm
# T3 construct: ErbB-1 receptor from human carcinoma A431 cells; purchased Sigma #E-2645; host or cells: A431 human carcinoma cells (endogenous receptor, isolated by the vendor)
# ErbB-2-ECD [11] = molecular target: T1, ErbB-2-ECD; details: 6.25-50 ng protein on nitrocellulose; biotinylated peptide, 2 hrs RT
# Description: Immunoblot analysis of binding activity of the p6.1 peptide. […] After washing three times with PBS, the membrane was incubated with 100 μg biotinylated peptide for 2 hrs at RT.
# Binding activity of p6.1 peptide. The binding specificity of synthetic p6.1 peptide to recombinant ErbB-2-ECD was examined by immunoblot and ELISA procedures. Immunoblot analysis was performed to compare the binding activity of the p6.1 peptide to ErbB-2-ECD and several other non-ErbB-2 related proteins. Purified recombinant ErbB-2-ECD as well as BSA, bovine asialofetuin, and human IgG were spotted on a nitrocellulose membrane at various amounts and exposed to the biotinylated p6.1 peptide.
# [12] = cited from earlier work
compound,measurement,setting,value
CC[C@]1(O)C[C@@H]2CN(CCc3c([nH]c4ccccc34)[C@@](C(=O)OC)(c3cc4c(cc3OC)N(C)[C@H]3[C@@](O)(C(=O)OC)[C@H](OC(C)=O)[C@]5(CC)C=CCN6CC[C@]43[C@@H]65)C2)C1 [vinblastine],plasma protein binding,[1],bind to plasma proteins
same,absorption after oral administration,[1],Unpredictable absorption
CC[C@]1(O)C[C@H]2CN(CCc3c([nH]c4ccccc34)[C@@](C(=O)OC)(c3cc4c(cc3OC)N(C=O)[C@H]3[C@@](O)(C(=O)OC)[C@H](OC(C)=O)[C@]5(CC)C=CCN6CC[C@]43[C@@H]65)C2)C1 [vincristine],plasma protein binding,[1],bind to plasma proteins
same,absorption after oral administration,[1],Unpredictable absorption
"O=NN(CCCl)C(=O)NC1CCCCC1 [Lomustine, 1-(2-chloro-ethyl)-3-cyclohexyl-1 nitrosourea]",radioactivity excreted as degradation products within 24 hours,[2],about half
WYAWML [p6.2],% Of Clones,ErbB-2-ECD [3],8%
"Cc1c2oc3c(C)ccc(C(=O)N[C@@H]4C(=O)N[C@H](C(C)C)C(=O)N5CCC[C@H]5C(=O)N(C)CC(=O)N(C)[C@@H](C(C)C)C(=O)O[C@@H]4C)c3nc-2c(C(=O)N[C@@H]2C(=O)N[C@H](C(C)C)C(=O)N3CCC[C@H]3C(=O)N(C)CC(=O)N(C)[C@@H](C(C)C)C(=O)O[C@@H]2C)c(N)c1=O [Actinomycin D] (I: T[dV]P[Sar][NMeV] / II: T[dV]P[Sar][NMeV]; ester I:1-I:C, II:1-II:C; linker I:N-II:N via Actinocin(9to1))",passage of the blood-brain barrier,[4],does not pass
N[C@@H](Cc1ccc(N(CCCl)CCCl)cc1)C(=O)O [Melphalan],patients with multiple myeloma showing a favorable response,multiple myeloma,one third to one half
"biotinylated p6.1: biotinylated analog of the p6.1 peptide KCCYSL, chemically synthesized (cysteine pairing not given here; also: biotinylated, place not given here)",binding to T-24 cells (fluorescent microscopy),[5],"Neither the Neu (9G6) anti-ErbB-2 antibody, nor the biotinylated p6.1 bound"
same,binding to DU-145 cells (fluorescent microscopy),[6],bound
same,binding to MDA-MB-435 cells (fluorescent microscopy),[7],bound
WYSWLL [p6.3],% Of Clones,ErbB-2-ECD [3],10%
KCCYSL [p6.1],binding activity to ErbB-2-ECD (ELISA),"ErbB-2-ECD [8]; 100 ng protein per well, biotinylated peptide in 1:2 serial dilutions, OD 405 nm",significant dose dependent binding activity
same,competition with Neu (9G6) antibody for the same binding site on the extracellular domain,ErbB-2-ECD [8]; experimental ELISA data,do not compete
same,reaction with control proteins (immunoblot),[9],did not react
same,maximum quenching of tryptophanyl fluorescence,soluble ErbB-2-ECD,20%
same,binding activity to ErbB-1 protein (ELISA),[10],significant dose dependent binding activity
same,% Of Clones,ErbB-2-ECD [3],75%
same,binding to immobilized ErbB-2-ECD (immunoblot),ErbB-2-ECD [11],bound only ErbB-2
"O=NN(CCCl)C(=O)NCCCl [Carmustine, 1,3 bis(2-chloroethyl)-1-nitrosourea]",solubility in water,[12],poorly soluble
